Measured values as given in patent US20250243176A1, “(S)-1-(1-ACRYLOYLPIPERIDIN-3-YL)-2-FLUORO-5,6,7,8,9,10-HEXAHYDROCYCLO HEPTA[B]INDOLE-4-CARBOXAMIDE, AND RELATED CRYSTALLINE FORMS, COMPOSITIONS, AND METHODS THEREOF” (GB005, Inc., priority 2021, published 2025).
Values after ≈ are worked out from the molar mass of the structure shown. Read-outs that look alike come from different tables or passages of the source.

Legend:
TEC = target: T1, TEC (Homo sapiens, UniProt P42680); assay: Kinome scan, TEC; format: biochemical
T1 sequence (P42680 1-631): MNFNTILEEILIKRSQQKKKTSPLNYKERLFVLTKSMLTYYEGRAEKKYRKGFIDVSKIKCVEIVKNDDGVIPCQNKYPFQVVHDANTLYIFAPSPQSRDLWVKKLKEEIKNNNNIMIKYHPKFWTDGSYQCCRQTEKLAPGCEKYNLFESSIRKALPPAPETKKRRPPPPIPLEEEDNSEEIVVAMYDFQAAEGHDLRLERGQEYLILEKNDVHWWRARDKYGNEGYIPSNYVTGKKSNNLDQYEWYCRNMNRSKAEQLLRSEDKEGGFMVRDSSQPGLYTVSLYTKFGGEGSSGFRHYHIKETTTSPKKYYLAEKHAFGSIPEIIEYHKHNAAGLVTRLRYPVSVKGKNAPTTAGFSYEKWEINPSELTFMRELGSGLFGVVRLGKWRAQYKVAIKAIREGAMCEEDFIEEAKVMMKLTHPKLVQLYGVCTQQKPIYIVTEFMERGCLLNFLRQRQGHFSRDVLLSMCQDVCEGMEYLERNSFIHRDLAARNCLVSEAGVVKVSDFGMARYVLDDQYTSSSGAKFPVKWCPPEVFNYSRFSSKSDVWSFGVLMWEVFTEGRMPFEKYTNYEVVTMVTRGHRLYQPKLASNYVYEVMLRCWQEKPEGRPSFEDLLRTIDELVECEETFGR
Description: (§1) (S)-1-(1-acryloylpiperidin-3-yl)-2-fluoro-5,6,7,8,9,10-hexahydrocyclohepta[b]indole-4-carboxamide, hereinafter referred to as “Compound 1”, is an orally available, selective, potent inhibitor of Bruton's tyrosine kinase (BTK), thereby providing potential treatment options in BTK-driven diseases. The potency of Compound 1 for BTK inhibition is in the nM range in both cell-free enzymatic and whole blood functional assays.

[1] = Phase 1 food effect on pharmacokinetics; format: in vivo, human; details: for Tmax / half-life / AUC(0-inf) / Cmax: human, plasma, oral; for AUC(0-inf) / Cmax: mean
Description: Cohort 11 is a randomized, 2-treatment, 2-period, 2-sequence, single-dose level food effect evaluation. The formulation used in Cohort 11 is Formulation A. In Treatment Sequence FH, subjects receive Compound 1 in the fasted state on Day 1, and a second dose in the fed state (high-fat, high-calorie meal) on Day 8. In Treatment Sequence HF, subjects receive Compound 1 in the fed state (high-fat, high-calorie meal) on Day 1 and a second dose in the fasted state on Day 8. Days 2-7 are washout days.
Results: Preliminary pharmacokinetic results evaluating the effect of food on Compound 1 PK are presented, including 12 subjects from Cohort 11, […] 15 mg under fasting conditions, or in a fed state (with a moderate-fat meal or with a high-fat high-calorie meal). Preliminary PK parameters are presented in Table 48 (all pharmacokinetic parameters of […] are reported as Mean (% coefficient of variation), except for Tmax and t/2, which are reported as Median (Min, Max)), and in FIG. 28.

349 kinases = assay: Kinome scan, panel; format: biochemical; details: kinome scan against 349 kinases
Description: as §1

[2] = target: T2, Bruton's tyrosine kinase (BTK) (Homo sapiens, UniProt Q06187); assay: BTK cell-free enzymatic assay; format: biochemical
T2 construct: from tissue; host or cells: whole blood
Description: as §1

[3] = Solubility testing in aqueous media at various pH (Form III); format: physicochemical; details: thermodynamic from solid
Description: 0.833 mL concentrated hydrochloric acid was diluted to 100 mL with water (pH=1.0).
Added appropriate amount of water to 0.1N HCl, adjust the pH to 1.2.
KH2PO4 (1360.0 mg) and NaOH (310.0 mg) are mixed in a 200 mL volumetric flask. Water was added to dissolve the solid and dilute to the volume. The flask was shaken to achieve good mixing. (pH=7.42).
Solubility was measured in pH 1.0 water, pH 1.2 buffer and pH 7.4 buffer at room temperature and 37° C. About 10-15 mg of sample was weighed into sample vials and then 2.0/3.0 mL of 0.1 N HCl solution, pH 1.2 buffer and pH 7.4 buffer media, and water were added, respectively. Samples were run in duplicate for each medium. The suspensions were shaken at room temperature or 37° C. Residual solid was collected for XRPD analysis, though no form change occurred during testing. In all instances, very low solubility was observed.

[4] = Further solubility testing in excipients, HPLC; format: physicochemical
Description: Compound 1 (˜0.5 g) was added to each excipient until visually saturated. The mixtures were incubated on a temperature-controlled mixer with glass beads to facilitating mixing, for at least 48 hours at room temperature (liquid excipients) or 40° C. (semisolid excipients). The samples were then centrifuged using 0.45 μm PVDF filter to separate the liquid and solid portions. The amount of dissolved compound in the filtrate was quantified by HPLC. XRPD analysis of any solid powder confirmed there was no change in form. The solubility results are presented in Table 16 and show Compound 1 had high solubility (>30 mg/g) in most of the screened excipients.

[5] = 15 mg, Cohort 11, 15 mg single dose, Fasted
[6] = 15 mg, Cohort 11, 15 mg single dose, High-Fat
[7] = 15 mg, Cohorts 2 and 7, 15 mg single dose, Moderate-Fat
[8] = pH 7.4 buffer (KH2PO4/NaOH), aqueous buffer, pH 7.4 Buffer, 37° C.
[9] = pH 7.4 buffer (KH2PO4/NaOH), aqueous buffer, pH 7.4 Buffer, RT
[10] = simulated gastric fluid, pH 1.0 (0.1N HCl), RT
[11] = simulated gastric fluid, pH 1.2 Buffer, 37° C.

T2 sequence (Q06187 whole entry, species assumed): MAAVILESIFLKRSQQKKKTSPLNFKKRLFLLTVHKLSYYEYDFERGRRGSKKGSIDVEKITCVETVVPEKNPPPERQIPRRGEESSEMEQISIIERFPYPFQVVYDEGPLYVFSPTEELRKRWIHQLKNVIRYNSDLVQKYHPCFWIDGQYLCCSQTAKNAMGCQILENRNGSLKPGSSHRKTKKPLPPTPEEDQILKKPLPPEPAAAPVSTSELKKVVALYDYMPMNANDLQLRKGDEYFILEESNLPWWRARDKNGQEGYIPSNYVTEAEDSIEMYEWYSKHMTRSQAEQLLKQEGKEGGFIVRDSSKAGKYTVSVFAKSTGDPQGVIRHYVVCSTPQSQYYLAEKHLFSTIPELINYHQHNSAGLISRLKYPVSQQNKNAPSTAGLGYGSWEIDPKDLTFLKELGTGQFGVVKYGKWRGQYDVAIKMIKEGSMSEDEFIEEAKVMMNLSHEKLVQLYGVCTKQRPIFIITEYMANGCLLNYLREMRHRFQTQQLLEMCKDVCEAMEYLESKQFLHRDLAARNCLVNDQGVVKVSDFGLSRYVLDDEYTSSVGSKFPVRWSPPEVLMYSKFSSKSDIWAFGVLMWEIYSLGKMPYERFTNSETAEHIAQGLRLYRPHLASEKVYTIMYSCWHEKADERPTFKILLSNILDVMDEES

C=CC(=O)N1CCC[C@@H](c2c(F)cc(C(N)=O)c3[nH]c4c(c23)CCCCC4)C1 [Compound 1, (S)-1-(1-acryloylpiperidin-3-yl)-2-fluoro-5,6,7,8,9,10-hexahydrocyclohepta[b]indole-4-carboxamide]
inhibition at 1 µM (TEC): > 50% | AUC0-inf, High-Fat/Fasted % GMR - paired ([1]; 15 mg single dose): 120.3% | AUC0-inf, Moderate-Fat/Fasted % GMR - unpaired ([1]; 15 mg single dose): 107.9% | Cmax, High-Fat/Fasted % GMR - paired ([1]; 15 mg single dose): 68.0% | Cmax, Moderate-Fat/Fasted % GMR - unpaired ([1]; 15 mg single dose): 74.1% | Tmax ([1]; both sexes, 15 mg, single 15 mg dose, fasting, moderate-fat meal or high-fat high-calorie meal, read-out: mean plasma Tmax): 1 to 2.5 h | half-life ([1]; both sexes, 15 mg, single 15 mg dose, fasting, moderate-fat meal or high-fat high-calorie meal, read-out: terminal half-life (converted)): ~3 h | AUC(0-inf) [1, 5]: 312 ng·h/mL | Cmax [1, 5]: 137 ng/mL | half-life ([1]; 15 mg, Cohort 11, 15 mg single dose, Fasted, median, read-out: T1/2 (converted)): 2.89 h | Tmax ([1]; 15 mg, Cohort 11, 15 mg single dose, Fasted, median, read-out: Tmax): 1 h | AUC(0-inf) [1, 6]: 356 ng·h/mL | Cmax [1, 6]: 85.5 ng/mL | half-life ([1]; 15 mg, Cohort 11, 15 mg single dose, High-Fat, median, read-out: T1/2 (converted)): 2.99 h | Tmax ([1]; 15 mg, Cohort 11, 15 mg single dose, High-Fat, median, read-out: Tmax): 2.5 h | AUC(0-inf) [1, 7]: 322 ng·h/mL | Cmax [1, 7]: 101 ng/mL | half-life ([1]; 15 mg, Cohorts 2 and 7, 15 mg single dose, Moderate-Fat, median, read-out: T1/2 (converted)): 2.9 h | Tmax ([1]; 15 mg, Cohorts 2 and 7, 15 mg single dose, Moderate-Fat, median, read-out: Tmax): 1.5 h | effect of food on PK ([1]; moderate fat, or high-fat high calorie meal, 15 mg): no clinically significant effect | kinase selectivity (349 kinases): high kinase selectivity | potency for BTK inhibition [2]: nM range | solubility at 4 h [3, 8]: 0.8 µg/mL (≈ 2.09 µM) | solubility at 24 h [3, 8]: 0.8 µg/mL (≈ 2.09 µM) | solubility at 24 h [3, 9]: 0.8 µg/mL (≈ 2.09 µM) | solubility at 48 h [3, 9]: 1.7 µg/mL (≈ 4.43 µM) | solubility at 4 h [3, 10]: 0.7 µg/mL (≈ 1.83 µM) | solubility at 24 h [3, 10]: 0.8 µg/mL (≈ 2.09 µM) | solubility at 48 h [3, 10]: 1.6 µg/mL (≈ 4.17 µM) | solubility at 4 h [3, 11]: 0.9 µg/mL (≈ 2.35 µM) | solubility at 24 h [3, 11]: 0.9 µg/mL (≈ 2.35 µM) | solubility at 4 h ([3]; Water (pH 5.0), 37° C.): 0.6 µg/mL (≈ 1.56 µM) | solubility at 24 h ([3]; Water (pH 5.0), 37° C.): 0.7 µg/mL (≈ 1.83 µM) | Solubility ([4]; Capryol PGMC, at least 48 hours, RT (liquid) or 40° C. (semisolid excipients)): 38.1 mg/g | Solubility ([4]; Gelucire 44/14, at least 48 hours, RT (liquid) or 40° C. (semisolid excipients)): 48.9 mg/g | Solubility ([4]; Gelucire 50/13, at least 48 hours, RT (liquid) or 40° C. (semisolid excipients)): 45.9 mg/g | Solubility ([4]; Kolliphor ELP, at least 48 hours, RT (liquid) or 40° C. (semisolid excipients)): 36.5 mg/g | Solubility ([4]; Kolliphor HS 15, at least 48 hours, RT (liquid) or 40° C. (semisolid excipients)): 53.6 mg/g | Solubility ([4]; Kolliphor RH40, at least 48 hours, RT (liquid) or 40° C. (semisolid excipients)): 52.4 mg/g | Solubility ([4]; Labrafil M 1944 CS, at least 48 hours, RT (liquid) or 40° C. (semisolid excipients)): 10.7 mg/g | Solubility ([4]; Labrafil M 2125 CS, at least 48 hours, RT (liquid) or 40° C. (semisolid excipients)): 9.3 mg/g | Solubility ([4]; Labrasol ALF, at least 48 hours, RT (liquid) or 40° C. (semisolid excipients)): 68.1 mg/g | Solubility ([4]; Lauroglycol FCC, at least 48 hours, RT (liquid) or 40° C. (semisolid excipients)): 16.0 mg/g | Solubility ([4]; Maisine CC, at least 48 hours, RT (liquid) or 40° C. (semisolid excipients)): 16.7 mg/g | Solubility ([4]; Masester E8120, at least 48 hours, RT (liquid) or 40° C. (semisolid excipients)): 65.3 mg/g | Solubility ([4]; Miglyol 812N, at least 48 hours, RT (liquid) or 40° C. (semisolid excipients)): 2.9 mg/g | Solubility ([4]; Oleic Acid, at least 48 hours, RT (liquid) or 40° C. (semisolid excipients)): 21.0 mg/g | Solubility ([4]; PEG 400, at least 48 hours, RT (liquid) or 40° C. (semisolid excipients)): 77.3 mg/g | Solubility ([4]; Peceol, at least 48 hours, RT (liquid) or 40° C. (semisolid excipients)): 22.8 mg/g | Solubility ([4]; Sesame Oil, at least 48 hours, RT (liquid) or 40° C. (semisolid excipients)): 1.9 mg/g | Solubility ([4]; Span 80, at least 48 hours, RT (liquid) or 40° C. (semisolid excipients)): 12.2 mg/g | Solubility ([4]; Transcutol HP, at least 48 hours, RT (liquid) or 40° C. (semisolid excipients)): 118.6 mg/g | Solubility ([4]; Tween 20, at least 48 hours, RT (liquid) or 40° C. (semisolid excipients)): 48.6 mg/g | Solubility ([4]; Tween 80, at least 48 hours, RT (liquid) or 40° C. (semisolid excipients)): 49.0 mg/g | Solubility ([4]; Vitamin E TPGS, at least 48 hours, RT (liquid) or 40° C. (semisolid excipients)): 40.8 mg/g | Solubility ([4]; in most of the screened excipients): > 30 mg/g
